Holding throughout (type): physicochemical
The nature of data set [1]: Release of doxorubicin from porous silica particles. The conditions noted are these: loaded on porous silica particles of Example 1-(1); PBS, 37° C., 200 rpm. How it is done:
0.5 mg of porous silica particles loaded with doxorubicin (0.1 mg) was dispersed in PBS. This solution was maintained in a dynamic condition for horizontal agitation at 37° C. and 200 rpm. The doxorubicin-loaded porous silica solution was settled by a centrifugal separator at each time point, an absorbance of the supernatant (λab=480 nm) was measured to determine an amount of released doxorubicin, and results thereof are shown in FIG. 13.

The nature of data set [2]: Release of Cy5-siRNA from porous silica particles. The following applies: Cy5-siRNA loaded on particles of Example 2-(1)-2)(ii); SBF (pH 7.4, 37° C.), 60 rpm. The method, then:
10 μl of the porous silica particles loaded with Cy5-siRNA was re-suspended in SBF (pH 7.4, 37° C.) and then put in a permeable membrane having a pore diameter of 20 kDa (tube in FIG. 18).
Thereafter, the permeable tube was dipped in 1.5 ml of SBF.
Before 24 hours, the released solvent was recovered at a time passing 0.5, 1, 2, 4, 8, 12 and 24 hours. Thereafter, 0.5 ml of released solvent was recovered at an interval of 24 hours for fluorescence measurement, followed by addition of SBF in equal amount.
Fluorescent intensity of Cy5-siRNA was measured at a wavelength of 670 nm (λex=647 nm) to determine a release degree of siRNA, and results thereof are shown in FIG. 19.

The nature of data set [3]: Release of sorafenib from porous silica particles. The following applies: loaded on particles of Example 1-(11)-5)(i) (hydrophobic substituent); 1×PBS, 37° C., 200 rpm. The method, then: 1 mg of porous silica particles loaded with sorafenib (0.1 mg) was dispersed in 10 mL of 1×PBS mL. This solution was maintained in a dynamic condition for horizontal agitation at 37° C. and 200 rpm. The sorafenib-loaded porous silica solution was settled by a centrifugal separator at each time point, an absorbance of the supernatant (λab=270 nm) was measured to determine an amount of released sorafenib, and results thereof are shown in FIG. 15.

Data set [4] is described as follows: Release of irinotecan from porous silica particles in human plasma. The following applies: loaded on negatively charged particles of Example 2-(3)-1), 37° C., 200 rpm. The method, then:
1 mg of porous silica particles loaded with irinotecan (0.2 mg) was dispersed in 1 mL of human plasma. This solution was maintained in a dynamic condition for horizontal agitation at 37° C. and 200 rpm. The irinotecan-loaded porous silica solution was settled by a centrifugal separator at each time point, an absorbance of the supernatant (λab=255 or 278 nm) was measured to determine an amount of released irinotecan, and results thereof are shown in FIG. 14.

Data set [5] in a line: Release of p53 peptides from porous silica particles. The following applies: loaded on particles of Example 1-(11)-5)(i), 37° C., 20 rpm. How it is done:
5 mg of particles loaded with p53 peptides was put in 5 mL of 1×PBS containing 10% FBS or 5 mL of 1×PBS, and held in a dynamic environment while rotating at 37° C. and 20 rpm. The solution was centrifuged at 8500 rpm at each time point, and a fluorescent intensity of 5(6)-carboxy fluorescein (FAM) as a fluorescent label coupled to p53 peptide in the supernatant was measured ([…]: 480 nm, Emission: 520 nm).

The nature of data set [6]: Release of RNase A from porous silica particles. The conditions noted are these: over 250 hours or more; SBF (pH 7.4) or PBS (pH 7.4), 37° C.; loaded on particles of Example 1-(9).
Method: 100 μg of the porous silica particles loaded with RNase A having fluorescence labeled therewith was re-suspended in 200 μl of SBF (pH 7.4) or PBS (pH 7.4).
Release of RNase A was performed at 37° C. while horizontally stirring at 60 rpm.
At a time point of 6, 12, 24, 48, 96, 144 and 240 hours, 200 μl of released solvent was recovered for fluorescence measurement, followed by addition of SBF or PBS in equal amount.

Take `COc1cccc2c1C(=O)c1c(O)c3c(c(O)c1C2=O)C[C@@](O)(C(=O)CO)C[C@@H]3O[C@H]1C[C@H](N)[C@H](O)[C@H](C)O1` [doxorubicin]: in data set [1], the “release of doxorubicin (in words)” value is recorded as “relatively quickly released” and the “time over which doxorubicin was continuously released” value was no less than 70 h.

Regarding “siRNA: 21 base pair duplex siRNA that targets green fluorescent protein (GFP), SEQ ID NO: 1 and 2; loaded on particles of Example 2-(1)-2)(ii) (sense GGCUACGUCCAGGAGCGCACC; antisense UGCGCUCCUGGACGUAGCCUU; Cy5 label, chemistry not fully specified)”, the “time over which 50% of siRNA was released” value in data set [2] is recorded as “about 48 hours”.

For `CNC(=O)c1cc(Oc2ccc(NC(=O)Nc3ccc(Cl)c(C(F)(F)F)c3)cc2)ccn1` [sorafenib], in data set [3], the “release of sorafenib (in words)” value is listed as “very slowly released”.

Turning to `CCc1c2c(nc3ccc(OC(=O)N4CCC(N5CCCCC5)CC4)cc13)-c1cc3c(c(=O)n1C2)COC(=O)[C@]3(O)CC` [irinotecan], the irinotecan released entry in data set [4] (after 5.5 hours) is recorded as “about 50%”. In data set [4], the “time over which irinotecan was continuously released” value is no less than 120 h.

With “Z-Gly-Gly-Qln-Ser-Qln-Qln-Thr-Phe-Y-Asn-Leu-Trp-Arg-Leu-Leu-X-Qln-Asn-NH2 (GGXSXXTFXNLWRLLXXN; not fully specified; FAM label; triazole staple; C-terminal amide; p53 peptide; SITE 3 1 - Xaa is Qln; 2 - Xaa is Qln; SITE 9 3 - Xaa is a non-natural amino acid introduced with an alkyne functional group wherein 4-pentynoic acid is introduced at a side chain of D-Lys; SITE 16 4 - Xaa is a non-natural amino acid introduced with an azide functional group and denotes 2-amino-5-azido-pentanoic acid; SITE 17 5 - Xaa is Qln) [FAM-labelled triazole-stapled peptide mimicking p53, antagonist of hMDM2]”, the “release of p53 peptide (in words)” value is recorded as “may be released outside the particle” in data set [5] (1×PBS containing 10% FBS) and “not released” in data set [5] (1×PBS).

B1: RNase A: RNase A (Sigma Aldrich, R6513), fluorescence labeled, loaded on particles of Example 1-(9) (protein, UniProt P61823 27-150, looked up)
Ribonuclease pancreatic: KETAAAKFERQHMDSSTSAASSSNYCNQMMKSRNLTKDRCKPVNTFVHESLADVQAVCSQKNVACKNGQTNCYQSYSTMSITDCRETGSSKYPNCAYKTTQANKHIIVACEGNPYVPVHFDASV
modifications: fluorescence labeled
Take B1: in data set [6], the “RNase A released” value was roughly 100%.

The record behind these values is US12138346B2, “Physiologically active substance carrier” (LEMONEX INC., priority 2017, dated 2024).
